The results in this text go back to PMC6965684, “Characterization of binding, functional activity, and contractile responses of the selective 5‐HT1F receptor agonist lasmiditan” (British Journal of Pharmacology, 2019).

SMILES strings stand for the structures. pEC50, pIC50, pKi: −log10 of the molar value. Counter-ions that a name gives are not always drawn. Like-named read-outs stand apart in the source and are kept apart here.

By pEC50 is commonly meant the negative decadic logarithm of the EC50, by convention in mol/L. Broadly, the pIC50 is −log10 of the IC50, conventionally taken in molar units. High values mean a low IC50, low ones a high IC50. In general, pKi refers to the negative decadic logarithm of the Ki, by convention in mol/L. A low value points to a large Ki.

The target of assay [1] is T1, 5-ht1E receptor (Homo sapiens, UniProt P28566).
T1 construct: gene HTR1E; full-length human recombinant receptor in CHO-K1 cells (Ogeda); crude membranes
T1 sequence (P28566 whole entry): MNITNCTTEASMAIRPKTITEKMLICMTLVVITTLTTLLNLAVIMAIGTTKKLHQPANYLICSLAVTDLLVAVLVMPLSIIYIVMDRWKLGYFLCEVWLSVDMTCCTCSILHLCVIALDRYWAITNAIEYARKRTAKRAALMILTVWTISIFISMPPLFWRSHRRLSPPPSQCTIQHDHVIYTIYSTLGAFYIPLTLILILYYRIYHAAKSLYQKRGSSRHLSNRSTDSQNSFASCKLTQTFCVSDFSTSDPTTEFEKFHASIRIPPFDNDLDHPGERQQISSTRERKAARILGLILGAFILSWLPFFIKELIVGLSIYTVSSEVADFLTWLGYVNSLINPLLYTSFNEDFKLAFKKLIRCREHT
The experiment in a line: radioligand competition, CHO-K1 membranes. The format is binding. An excerpt: radioligand competition, CHO-K1 membranes on 5-ht1E receptor

For a further assay, the target named is T2, 5-HT2B receptor (Homo sapiens, UniProt P41595).
T2 construct: gene HTR2B; full-length human recombinant receptor in CHO-K1 cells (Ogeda); crude membranes
T2 sequence (P41595 whole entry): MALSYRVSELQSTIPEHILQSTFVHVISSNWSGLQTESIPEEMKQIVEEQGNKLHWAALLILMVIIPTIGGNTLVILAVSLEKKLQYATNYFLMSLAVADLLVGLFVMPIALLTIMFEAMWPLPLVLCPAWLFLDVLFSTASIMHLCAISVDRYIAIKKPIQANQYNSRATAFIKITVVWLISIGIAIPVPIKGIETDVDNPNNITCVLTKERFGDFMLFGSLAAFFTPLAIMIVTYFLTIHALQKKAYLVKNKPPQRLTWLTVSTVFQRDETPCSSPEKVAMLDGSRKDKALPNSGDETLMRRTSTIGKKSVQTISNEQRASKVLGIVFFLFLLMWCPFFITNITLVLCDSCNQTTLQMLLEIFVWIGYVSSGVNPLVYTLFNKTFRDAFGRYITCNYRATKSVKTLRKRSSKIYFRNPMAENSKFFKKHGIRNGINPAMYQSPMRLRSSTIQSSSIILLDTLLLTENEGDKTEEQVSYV
The assay can be described thus: radioligand competition, CHO-K1 membranes. It counts as binding. From the text: radioligand competition, CHO-K1 membranes on 5-HT2B receptor

In assay [2] the target is T3, 5-HT2A receptor (Homo sapiens, UniProt P28223).
T3 construct: gene HTR2A; full-length human recombinant receptor in CHO-K1 cells (Ogeda); crude membranes
T3 sequence (P28223 whole entry): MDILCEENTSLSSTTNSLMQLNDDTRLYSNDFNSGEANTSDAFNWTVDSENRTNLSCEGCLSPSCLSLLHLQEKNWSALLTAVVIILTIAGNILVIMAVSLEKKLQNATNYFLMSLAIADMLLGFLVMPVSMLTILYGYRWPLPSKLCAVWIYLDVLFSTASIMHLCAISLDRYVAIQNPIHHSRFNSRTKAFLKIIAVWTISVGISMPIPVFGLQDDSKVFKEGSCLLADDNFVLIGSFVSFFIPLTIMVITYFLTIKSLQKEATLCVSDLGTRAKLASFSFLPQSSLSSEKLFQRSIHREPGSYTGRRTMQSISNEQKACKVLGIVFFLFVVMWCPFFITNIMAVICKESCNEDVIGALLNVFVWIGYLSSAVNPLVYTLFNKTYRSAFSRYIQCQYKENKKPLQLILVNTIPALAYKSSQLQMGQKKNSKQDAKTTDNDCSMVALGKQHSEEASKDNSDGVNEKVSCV
The assay can be described thus: cell-based. The note with it: for EC50: IP, read-out: 5‐HT2A / IP (converted). Further details: species or system CHO-K1; IPOne HTRF agonist assay, IP1 accumulation in adherent transfected cells. On the procedure:
The assay was performed on adherent cells. For agonist testing, the medium was removed and 20 μl of assay buffer plus 20 μl of the studied agonist or the reference agonist were added in each well. The plate was incubated for 60 min at 37°C with 5% CO2. IP1‐D2 reagent and anti‐IP1 cryptate reagents were dispensed in the wells, and IP1 concentrations were then measured following the manufacturer instructions (IPOne HTRF assay kit; Cisbio International, Codolet, France). In brief, increasing concentrations of agonists were added to stably transfected cells in buffer in an Optiplate (PerkinElmer Life Sciences). The plates were incubated, and cells were then lysed by the addition of HTRF reagents (IP1‐D2 reagent and anti‐IP1 cryptate reagents) and diluted in lysis buffer, followed by incubation at room temperature. […] Additionally, the reference values obtained were compared to historical values obtained from the same receptor and used to validate the experimental session. […] For the new assays developed in this study (i.e., 5‐ht1E receptor), the two independent pIC50 determined must be concordant with a 1 log unit interval for the assays to be validated. […]

The target in the next assay is T4, 5-HT1D receptor (Homo sapiens, UniProt P28221).
T4 construct: gene HTR1D; full-length human recombinant receptor in CHO-K1 cells (Ogeda); crude membranes
T4 sequence (P28221 whole entry): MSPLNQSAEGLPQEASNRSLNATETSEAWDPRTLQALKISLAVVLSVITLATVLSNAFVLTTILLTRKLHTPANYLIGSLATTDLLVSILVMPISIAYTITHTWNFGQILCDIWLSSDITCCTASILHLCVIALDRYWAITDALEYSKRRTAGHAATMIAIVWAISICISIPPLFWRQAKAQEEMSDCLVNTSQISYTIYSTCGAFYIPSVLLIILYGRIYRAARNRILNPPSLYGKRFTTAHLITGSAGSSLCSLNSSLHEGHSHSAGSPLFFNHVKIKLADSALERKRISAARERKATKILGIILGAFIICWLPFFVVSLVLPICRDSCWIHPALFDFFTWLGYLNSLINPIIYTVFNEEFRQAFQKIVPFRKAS
The assay can be described thus: radioligand competition, CHO-K1 membranes. It counts as binding. The note with it: radioligand listed in supplement Table S1. From the text:
radioligand competition, CHO-K1 membranes on 5-HT1D receptor
Background: Loss of bound radioactivity is the signal in a displacement assay; it reports binding, not function.

Assay [3] concerns the target T5, 5-HT1F receptor (Homo sapiens, UniProt P30939).
T5 construct: gene HTR1F; full-length human recombinant receptor in CHO-K1 cells (Ogeda)
T5 sequence (P30939 1-366): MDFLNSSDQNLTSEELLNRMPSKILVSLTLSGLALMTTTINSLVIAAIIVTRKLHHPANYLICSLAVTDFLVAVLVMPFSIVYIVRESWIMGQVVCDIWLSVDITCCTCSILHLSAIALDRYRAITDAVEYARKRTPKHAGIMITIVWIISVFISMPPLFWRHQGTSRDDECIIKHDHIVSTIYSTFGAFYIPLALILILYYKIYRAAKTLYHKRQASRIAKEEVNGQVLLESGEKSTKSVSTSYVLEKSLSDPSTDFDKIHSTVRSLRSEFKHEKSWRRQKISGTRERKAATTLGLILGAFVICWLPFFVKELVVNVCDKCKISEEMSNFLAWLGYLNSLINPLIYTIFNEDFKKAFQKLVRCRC
The experiment in a line: cAMP HTRF, stably transfected CHO-K1 cells. The note with it: agonist mode; inhibition of stimulated cAMP, […] min, room temperature. The format is cell-based. For orientation: In TR-FRET formats the signal depends on donor and acceptor labels being close together.

Assay [4] concerns the target T3, 5-HT2A receptor. The assay can be described thus: biochemical. It counts as CHO-K1 membranes. Further details: radioligand competition binding on cell membranes, filtration and TopCount scintillation counting. The note with it: for IC50 / Ki: radioligand displacement; for IC50: read-out: 5‐HT2A / pIC50 (converted); for Ki: read-out: 5‐HT2A / pKi (converted). On the procedure: Competition binding was performed in duplicate in the wells of a 96‐well plate containing binding buffer (optimized for each receptor), cell membrane extracts (approximately 20,000 cells distributed in the 96‐well plate), radiotracer, and test agonist. Non‐specific binding was determined by co‐incubation with 200‐fold excess of competitor. Cells were incubated and exposed to varying concentrations (1 pM to 10 μM) of a range of displacer agonists (see below). The samples were incubated in a final volume of 0.1 ml and then filtered over Unifilter plates (Perkin Elmer, Massachusetts, USA) pretreated for 2 hr to limit tracer non‐specific binding. Filters were washed five times with 0.5 ml of ice‐cold washing buffer (tris 50 mM pH 7.4) and 50 μl of Microscint 20 (Perkin Elmer) were added to each filter. The plates were incubated 15 min at room temperature on an orbital shaker and then counted with a TopCount™ (Perkin Elmer) for 1 min per well. […] Additionally, the reference values obtained were compared to historical values obtained from the same receptor and used to validate the experimental session. […] For the new assays developed in this study (i.e., 5‐ht1E receptor), the two independent pIC50 determined must be concordant with a 1 log unit interval for the assays to be validated. […]

The next assay addresses T6, 5-HT1A receptor (Homo sapiens, UniProt P08908).
T6 construct: gene HTR1A; full-length human recombinant receptor in CHO-K1 cells (Ogeda); crude membranes
T6 sequence (P08908 1-422): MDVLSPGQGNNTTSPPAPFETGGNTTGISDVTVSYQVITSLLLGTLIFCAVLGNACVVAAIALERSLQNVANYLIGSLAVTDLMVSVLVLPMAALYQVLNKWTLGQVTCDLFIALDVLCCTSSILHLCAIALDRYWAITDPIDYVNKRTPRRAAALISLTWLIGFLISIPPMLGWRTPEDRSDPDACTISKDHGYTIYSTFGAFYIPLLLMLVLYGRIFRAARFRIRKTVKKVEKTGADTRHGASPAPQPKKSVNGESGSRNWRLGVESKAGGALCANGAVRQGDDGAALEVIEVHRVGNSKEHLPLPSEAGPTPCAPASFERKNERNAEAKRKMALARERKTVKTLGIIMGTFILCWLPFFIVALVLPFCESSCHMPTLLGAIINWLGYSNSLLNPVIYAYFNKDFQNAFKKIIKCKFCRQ
The experiment in a line: radioligand competition, CHO-K1 membranes. The format is binding. The following applies: radioligand listed in supplement Table S1. From the text:
radioligand competition, CHO-K1 membranes on 5-HT1A receptor

For assay [5], the target named is T5, 5-HT1F receptor. The experiment in a line: radioligand competition, CHO-K1 membranes. The format is binding. The following applies: radioligand listed in supplement Table S1.
A further assay addresses T7, 5-HT1B receptor (Homo sapiens, UniProt P28222).
T7 construct: gene HTR1B; full-length human recombinant receptor in CHO-K1 cells (Ogeda); crude membranes
The assay can be described thus: radioligand competition, CHO-K1 membranes. It counts as binding. The following applies: radioligand listed in supplement Table S1. From the text: radioligand competition, CHO-K1 membranes on 5-HT1B receptor

Assay [6] has as its target T1, 5-ht1E receptor. The assay can be described thus: cell-based. Further details: species or system CHO-K1; cAMP HTRF agonist assay, Gi coupled receptors, inhibition of stimulated cAMP. The following applies: cAMP. On the procedure:
Concentration–response curves were performed in parallel with the agonists. […] After addition of the lysis buffer and 1‐hr incubation, cAMP concentrations were estimated according to the manufacturer specification with the HTRF kit (Cisbio International, Codelet, France). In brief, increasing concentrations of agonists were added to stably transfected cells in buffer in an Optiplate (PerkinElmer Life Sciences, Massachusetts, USA). The plates were incubated, and cells were then lysed by the addition of HTRF reagents (cAMP‐Cryptate and anti‐cAMP‐d2 reagents) and diluted in lysis buffer, followed by incubation at room temperature. […] Additionally, the reference values obtained were compared to historical values obtained from the same receptor and used to validate the experimental session. […] For the new assays developed in this study (i.e., 5‐ht1E receptor), the two independent pIC50 determined must be concordant with a 1 log unit interval for the assays to be validated.

Assay [7] addresses T1, 5-ht1E receptor. The assay can be described thus: biochemical. The format is CHO-K1 membranes. Further details: GTPγS agonist functional assay. The following applies: GTPγS. From the text:
Additionally, the reference values obtained were compared to historical values obtained from the same receptor and used to validate the experimental session. […] For the new assays developed in this study (i.e., 5‐ht1E receptor), the two independent pIC50 determined must be concordant with a 1 log unit interval for the assays to be validated.

The target of assay [8] is T1, 5-ht1E receptor. The experiment in a line: biochemical. The format is CHO-K1 membranes. Further details: radioligand competition binding on cell membranes, filtration and TopCount scintillation counting. The following applies: radioligand displacement; read-out: 5‐ht1E / pIC50 (converted). On the procedure: Competition binding was performed in duplicate in the wells of a 96‐well plate containing binding buffer (optimized for each receptor), cell membrane extracts (approximately 20,000 cells distributed in the 96‐well plate), radiotracer, and test agonist. Non‐specific binding was determined by co‐incubation with 200‐fold excess of competitor. Cells were incubated and exposed to varying concentrations (1 pM to 10 μM) of a range of displacer agonists (see below). The samples were incubated in a final volume of 0.1 ml and then filtered over Unifilter plates (Perkin Elmer, Massachusetts, USA) pretreated for 2 hr to limit tracer non‐specific binding. Filters were washed five times with 0.5 ml of ice‐cold washing buffer (tris 50 mM pH 7.4) and 50 μl of Microscint 20 (Perkin Elmer) were added to each filter. The plates were incubated 15 min at room temperature on an orbital shaker and then counted with a TopCount™ (Perkin Elmer) for 1 min per well. […] Additionally, the reference values obtained were compared to historical values obtained from the same receptor and used to validate the experimental session. […] For the new assays developed in this study (i.e., 5‐ht1E receptor), the two independent pIC50 determined must be concordant with a 1 log unit interval for the assays to be validated.

Where [9] appears, read: radioligand listed in supplement Table S1.

T7 sequence (P28222 whole entry): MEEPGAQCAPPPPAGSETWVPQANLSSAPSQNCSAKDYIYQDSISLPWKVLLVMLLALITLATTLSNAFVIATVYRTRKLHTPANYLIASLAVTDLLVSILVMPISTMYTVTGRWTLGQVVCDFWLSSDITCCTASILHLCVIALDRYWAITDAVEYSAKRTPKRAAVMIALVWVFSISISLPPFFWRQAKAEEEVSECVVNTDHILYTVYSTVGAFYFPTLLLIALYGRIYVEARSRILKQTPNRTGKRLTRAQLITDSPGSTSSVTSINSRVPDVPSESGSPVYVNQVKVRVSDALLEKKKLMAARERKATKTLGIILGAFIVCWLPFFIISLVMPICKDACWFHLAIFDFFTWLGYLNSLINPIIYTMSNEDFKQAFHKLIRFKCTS

Regarding `CN(C)CCc1c[nH]c2ccc(CS(=O)(=O)N3CCCC3)cc12` [Almotriptan malate], on 5-ht1E receptor [1] (setting [9]), the “5-ht1E / pKi” value is on record as < 5 -log M. For the same compound, the “/ pKi” value at 5-HT2B receptor (setting [9]) is < 5 -log M. Further, the EC50 on 5-HT2A receptor [2] is above 10 µM. Moreover, on 5-HT1D receptor, the “5-HT1D / pKi” value is 8.26 -log M. On 5-HT1F receptor [3], the “5-HT1F / cAMP” value is 7.79 -log M. Moreover, at 5-HT2A receptor [4], the IC50 is above 10 µM and the Ki is above 10 µM. Also, the “5-HT1A / pKi” value on 5-HT1A receptor is 6.73 -log M. Also, the “5-HT1F / pKi” value at 5-HT1F receptor [5] is listed as 7.57 -log M. Further, the “5-HT1B / pKi” value on 5-HT1B receptor was 8.45 -log M.
Take `c1ccc2c(c1)CC[C@H](CNCCCNC1=NCCCN1)O2` [Alniditan dihydrochloride]: on 5-HT2A receptor [2], the EC50 was above 10 µM. Moreover, the IC50 on 5-HT2A receptor [4] is above 10 µM.
`CN1CCC(c2c[nH]c3ccc(NC(=O)c4ccc(F)cc4)cc23)CC1` [LY334370 hydrochloride]: at 5-HT2A receptor [2], the EC50 is above 10 µM. Further, the IC50 at 5-HT2A receptor [4] is 7.76 µM.
In turn, `CN(C)CCc1c[nH]c2ccc(Cn3cncn3)cc12` [Rizatriptan benzoate] showed a pEC50 at 5-HT2A receptor [2] below 5.00. At 5-HT2A receptor [4], this compound had a pIC50 below 5.00 and a pKi below 5.00.
For `CNS(=O)(=O)Cc1ccc2[nH]cc(CCN(C)C)c2c1` [Sumatriptan succinate], the results for the Ki on 5-ht1E receptor [1] (read-out: 5-ht1E / pKi (converted)) and at 5-HT2B receptor (read-out: / pKi (converted)) were 1.91 µM and above 10 µM, respectively. Also, the values for the pEC50 at 5-ht1E receptor [6] and at 5-ht1E receptor [7] were 5.99 and 5.79, respectively. The IC50 at 5-ht1E receptor [8] is 3.8 µM.
As to `CN(C)CCc1c[nH]c2ccc(C[C@H]3COC(=O)N3)cc12` [Zolmitriptan], the EC50 at 5-HT2A receptor [2] is above 10 µM. In addition, at 5-HT2A receptor [4], the IC50 is above 10 µM and the Ki is above 10 µM.
